What was measured:
[1] = in vivo; details: dog
Source text: On an AUC basis the human starting dose is predicted to be 16 times lower than the NOAEL dose in dogs.

[2] = Nonclinical safety evaluation (cell-based and animal models); details: nonclinical data
Source text: This is a first-in-man trial of Compound 1 and potential toxic effects in humans are not yet fully known. […] An additional known class effect, apparent mineralocorticoid excess (AME), was not seen in nonclinical studies. This trial has been designed with the adverse nonclinical findings, theoretical MOA, and consideration of known class effect issues in mind. The trial evaluates potential clinical benefit and provides proof of concept while minimizing risk to subjects.

[3] = In vitro safety testing: genotoxicity
[4] = Oral bioavailability (nonclinical); details: in vivo
[5] = system: LAPC-4; assay: Inhibition of testosterone-induced proliferation, LAPC-4; assay type: cell-based, human; details: LAPC-4 stimulated with 1 nM DHT
Protocol: (§1) Human prostate cancer cell lines (LNCaP and LAPC-4) were grown in culture and stimulated with 1 nM dihydrotestosterone (DHT). This concentration of DHT stimulated the proliferation of prostate cancer cells.

[6] = system: LAPC4 prostate cancer cell tumors; assay: Growth of human prostate cancer xenografts in SCID mice; assay type: in vivo
Protocol: Xenografts of LAPC4 prostate cancer cell tumors were implanted in SCID mice. […] Tumor size was measured weekly and compared with control mice that received vehicle, Casodex® or castration only.

[7] = system: cytochrome P450 systems; assay: In vitro safety testing: cytochrome P450 systems; assay type: in vitro ADME
[8] = system: LNCaP; assay: Inhibition of testosterone-induced proliferation, LNCaP; assay type: cell-based, human; details: LNCaP stimulated with 1 nM DHT
Protocol: as §1

[9] = system: PSA; assay: Clinical study in chemotherapy naive CRPC: PSA response; assay type: in vivo, human
Protocol: The primary efficacy endpoint is the percent of subjects with 50% or greater decrease in PSA from baseline to 12 weeks, or PSA nadir (whichever comes first). Frequency and percentage are calculated for each treatment group. The primary analysis is also repeated using the PP Population.
A clinical study was performed according to the protocol of Example 6. Compound (1) was administered to four cohorts, each in a different amount.

[10] = biological target: T1, CYP17 (Homo sapiens, UniProt P05093); assay: Inhibition of lyase activity (CYP17); assay type: biochemical; details: CYP17 expressed by transfected E. coli; radiolabelled 17α-hydroxypregnenolone substrate
T1 construct: made in house; host or cells: E. coli
T1 sequence (P05093 1-508): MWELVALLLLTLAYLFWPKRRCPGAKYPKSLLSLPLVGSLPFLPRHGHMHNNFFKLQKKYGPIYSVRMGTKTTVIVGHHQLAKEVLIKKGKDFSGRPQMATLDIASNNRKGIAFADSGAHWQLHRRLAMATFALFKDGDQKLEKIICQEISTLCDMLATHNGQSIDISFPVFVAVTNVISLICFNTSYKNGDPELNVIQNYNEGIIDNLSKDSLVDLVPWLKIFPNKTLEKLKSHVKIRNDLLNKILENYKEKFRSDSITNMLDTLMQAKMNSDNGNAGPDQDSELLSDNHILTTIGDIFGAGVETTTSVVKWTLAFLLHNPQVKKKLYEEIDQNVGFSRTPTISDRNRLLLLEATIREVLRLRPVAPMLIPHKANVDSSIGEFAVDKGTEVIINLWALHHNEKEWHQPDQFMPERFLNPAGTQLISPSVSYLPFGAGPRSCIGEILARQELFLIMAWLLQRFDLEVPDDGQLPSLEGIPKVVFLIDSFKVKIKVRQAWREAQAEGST
Protocol: Intact CYP17 expressed by transfected E. coli was isolated and purified as an enzyme source. Radiolabelled 17α-hydroxypregnenolone as the substrate. CYP17 activity was measured by the amount of tritiated acetic acid formed during the cleavage of the C-21 side chain of the substrate.

[11] = system: off-target receptors; assay: In vitro safety testing: off-target receptors; assay type: binding
[12] = Chronic administration toxicity in rats; assay type: in vivo; details: administered chronically to rats

For `C[C@]12CC[C@H](O)CC1=CCC1C2CC[C@]2(C)C(n3cnc4ccccc43)=CCC12` (stereo partly drawn) [Compound (1), 3-β-Hydroxy-17-(1H-benzimidazol-1-yl)androsta-5,16-diene], the NOAEL [1] was 150 mg/kg, the “only safety signal seen” value [2] was “hepatoxicity” and the “toxicity in cell-based and animal models” value [2] was “minimal toxicity”. The genotoxicity [3] was “does not have genotoxicity”, the oral bioavailability [4] was “orally bioavailable” and the “inhibition of testosterone induced proliferation” value [5] was “dose-dependent inhibition”. For the same molecule, the tumor growth ([6]; 50 mg/kg BW SC twice daily, compared with castration) was “comparable or more pronounced decrease in tumor growth compared to castration”, the “size of androgen dependent human prostate tumors” value ([6]; SCID mouse models, levels corresponding to human subcutaneous doses of 140, 280, and 560 mg) was “dramatic reduction” and the “interference with activity of cytochrome P450 systems known to metabolize many drugs” value [7] was “does not interfere”. For the same molecule, the “inhibition of testosterone induced proliferation” value [8] was “dose-dependent inhibition”, the “Percentage of Patients With a PSA Response” value (“Percentage” below) ([9]; Cohort 1, 650 mg/day, 6 patients treated) was 67% (4) and the “Percentage” value ([9]; Cohort 2, 975 mg/day, 6 patients treated) was 67% (4). The “Percentage” value ([9]; Cohort 3, 1300 mg/day, 6 patients treated) was 83% (5), the “Percentage” value ([9]; Cohort 4, 1950 mg/day, 7 patients treated) was 71% (5) and the IC50 [10] was 300 nM. The “interaction with off-target receptors” value [11] was “only at high micromolar concentrations” and the toxic responses [12] was “fails to elicit toxic responses”.
